Data published in PubChem BioAssay AID248 (DTP/NCI, 2004).
Several values for one entry are separate records, joined by “and”; a condition that tells them apart may be missing. Equal values may be shown once. Toxic doses and inconclusive results are not listed. Cut-off read from the data, not from the text of the source: active = T/C of 150% or more; inactive = T/C below 125%.

Test system: L1210 leukemia ip in BDF1 mice, survival T/C
Assay: NCI In Vivo Anticancer Drug Screen. Data for tumor model L1210 Leukemia (intraperitoneal) in B6D2F1 (BDF1) mice
Conditions: endpoint: mean survival time, higher = longer survival
Summary of the method: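 Value reflects the ratio of survival in compound-treated mice to survival in vehicle-treated controls, with both groups carrying the same transplanted tumor.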

[1] = dose: 25.0 mg/kg/injection, schedule: Q01DX009 (ip), vehicle: saline
[2] = dose: 50.0 mg/kg/injection, schedule: Q01DX009 (ip), vehicle: saline
[3] = dose: 100.0 mg/kg/injection, schedule: Q04DX003 (ip), vehicle: saline
[4] = dose: 200.0 mg/kg/injection, schedule: Q04DX003 (ip), vehicle: saline
[5] = dose: 100.0 mg/kg/injection, schedule: Q01DX009 (ip), vehicle: saline
[6] = dose: 200.0 mg/kg/injection, schedule: Q01DX009 (ip), vehicle: saline
[7] = dose: 100.0 mg/kg/injection, schedule: Q04DX003 (ip), vehicle: Klucel (hydroxypropylcellulose) (HPC)
[8] = dose: 200.0 mg/kg/injection, schedule: Q04DX003 (ip), vehicle: Klucel (hydroxypropylcellulose) (HPC)
[9] = dose: 400.0 mg/kg/injection, schedule: Q04DX003 (ip), vehicle: Klucel (hydroxypropylcellulose) (HPC)
[10] = dose: 100.0 mg/kg/injection, schedule: Q01DX001 (ip), vehicle: saline
[11] = dose: 100.0 mg/kg/injection, schedule: Q01DX009 (ip), vehicle: Klucel (hydroxypropylcellulose) (HPC)
[12] = dose: 200.0 mg/kg/injection, schedule: Q01DX001 (ip), vehicle: saline
[13] = dose: 200.0 mg/kg/injection, schedule: Q01DX009 (ip), vehicle: Klucel (hydroxypropylcellulose) (HPC)
[14] = dose: 400.0 mg/kg/injection, schedule: Q01DX001 (ip), vehicle: saline
[15] = dose: 400.0 mg/kg/injection, schedule: Q01DX009 (ip), vehicle: Klucel (hydroxypropylcellulose) (HPC)
[16] = dose: 75.0 mg/kg/injection, schedule: Q01DX001 (ip), vehicle: other
[17] = dose: 150.0 mg/kg/injection, schedule: Q01DX001 (ip), vehicle: other
[18] = dose: 100.0 mg/kg/injection, schedule: Q01DX009 (ip), vehicle: saline with Tween-80
[19] = dose: 200.0 mg/kg/injection, schedule: Q01DX009 (ip), vehicle: saline with Tween-80

Measured: T/C

CN(C)CCSC(=O)N1c2ccccc2C(C)(C)c2ccccc21
inactive: dose: 12.5 mg/kg/injection, schedule: Q01DX009 (ip), vehicle: saline 94 % of control | [1] 100 % of control | dose: 25.0 mg/kg/injection, schedule: Q04DX003 (ip), vehicle: saline 91 % of control | [2] 111 % of control | dose: 50.0 mg/kg/injection, schedule: Q04DX003 (ip), vehicle: saline 102 % of control | [3] 96 % of control | [4] 90 % of control

CS(=N)(=O)CC(N)C(=O)O (stereo unspecified)
inactive: [5] 95 % of control | [6] 114 % of control | dose: 400.0 mg/kg/injection, schedule: Q01DX009 (ip), vehicle: saline 95 % of control

NC(=O)N1CCN(c2ccccc2)CC1
inactive: [7] 95 % of control | [8] 97 % of control | [9] 101 % of control

COC(=O)C(Br)CBr (stereo unspecified)
inactive: [1] 100 % of control | [2] 105 % of control | [5] 98 % of control and 105 % of control | [3] 102 % of control | [4] 116 % of control

c1ccc2ncc(-c3ccc4ccccc4n3)cc2c1
inactive: dose: 100.0 mg/kg/injection, schedule: Q01DX001 (ip), vehicle: Klucel (hydroxypropylcellulose) (HPC) 100 % of control | [10] 107 % of control | [11] 97 % of control and 116 % of control | dose: 200.0 mg/kg/injection, schedule: Q01DX001 (ip), vehicle: Klucel (hydroxypropylcellulose) (HPC) 94 % of control | [12] 96 % of control | [13] 95 % of control and 101 % of control | dose: 400.0 mg/kg/injection, schedule: Q01DX001 (ip), vehicle: Klucel (hydroxypropylcellulose) (HPC) 100 % of control | [14] 96 % of control | [15] 94 % of control and 100 % of control

COc1ccc(-c2c(-c3ccccc3)c(=O)oc3ccc4ccccc4c23)cc1
inactive: [7] 97 % of control | [8] 100 % of control | [9] 97 % of control

Nc1ccc(CCc2ccc(N)cc2[N+](=O)[O-])c([N+](=O)[O-])c1
inactive: [11] 101 % of control | [7] 96 % of control | [13] 101 % of control | [8] 109 % of control | [15] 92 % of control | [9] 90 % of control

C#C[C@]1(O)CC[C@H]2[C@@H]3CCc4cc(O)ccc4[C@H]3CC[C@@]21C
inactive: dose: 62.5 mg/kg/injection, schedule: Q04DX003 (sc), vehicle: steriod suspending solution 96 % of control | dose: 125.0 mg/kg/injection, schedule: Q04DX003 (sc), vehicle: steriod suspending solution 100 % of control | dose: 250.0 mg/kg/injection, schedule: Q04DX003 (sc), vehicle: steriod suspending solution 97 % of control | dose: 500.0 mg/kg/injection, schedule: Q04DX003 (sc), vehicle: steriod suspending solution 99 % of control

CN(C)N=Nc1ccc2c(c1)C(=O)NC2=O
inactive: dose: 100.0 mg/kg/injection, schedule: Q04DX003 (ip), vehicle: saline with Tween-80 96 % of control | dose: 200.0 mg/kg/injection, schedule: Q04DX003 (ip), vehicle: saline with Tween-80 99 % of control | dose: 400.0 mg/kg/injection, schedule: Q04DX003 (ip), vehicle: saline with Tween-80 99 % of control

COC1OCCCC1Br (stereo unspecified)
inactive: [10] 91 % of control | [12] 102 % of control | [14] 107 % of control

O=[n+]1ccn2cc3ccccc3cc2c1
inactive: dose: 12.5 mg/kg/injection, schedule: Q01DX009 (ip), vehicle: saline with Tween-80 105 % of control

S=c1[nH]ncn1-c1ccccc1
inactive: [11] 92 % of control | [13] 93 % of control

Nc1ccc(N)c(C(=O)O)c1
inactive: [16] 98 % of control | [17] 93 % of control

NCCCNCCO
inactive: [10] 102 % of control | [12] 111 % of control | [14] 105 % of control

NC(N)=N/N=C(\C=N\N=C(N)N)c1ccc(CCc2ccc(C(/C=N/N=C(N)N)=N\N=C(N)N)cc2)cc1
inactive: dose: 1.56 mg/kg/injection, schedule: Q04DX003 (ip), vehicle: saline 98 % of control | dose: 3.12 mg/kg/injection, schedule: Q04DX003 (ip), vehicle: saline 103 % of control

O=C(Nc1ccc(C2=NCCN2)cc1)N1CCN(C(=O)Nc2ccc(C3=NCCN3)cc2)CC1
inactive: dose: 250.0 mg/kg/injection, schedule: Q01DX Z (ip), vehicle: water 87 % of control

C1CCC2C(C1)CCC1C2OCN2CCCCC12 (stereo unspecified)
inactive: dose: 100.0 mg/kg/injection, schedule: Q04DX002 (ip), vehicle: saline with Tween-80 104 % of control | [3] 98 % of control | dose: 200.0 mg/kg/injection, schedule: Q04DX002 (ip), vehicle: saline with Tween-80 101 % of control | [4] 98 % of control | dose: 400.0 mg/kg/injection, schedule: Q04DX002 (ip), vehicle: saline with Tween-80 96 % of control | dose: 400.0 mg/kg/injection, schedule: Q04DX003 (ip), vehicle: saline 98 % of control

ClCCN(CCCl)c1ccc(Nc2nc(Nc3ccc(N(CCCl)CCCl)cc3)c3ccccc3n2)cc1
inactive: dose: 25.0 mg/kg/injection, schedule: Q04DX002 (ip), vehicle: saline 105 % of control | dose: 50.0 mg/kg/injection, schedule: Q04DX002 (ip), vehicle: saline 113 % of control | dose: 100.0 mg/kg/injection, schedule: Q04DX002 (ip), vehicle: saline 111 % of control | dose: 200.0 mg/kg/injection, schedule: Q04DX002 (ip), vehicle: saline 106 % of control and 109 % of control | dose: 400.0 mg/kg/injection, schedule: Q04DX002 (ip), vehicle: saline 95 % of control

Cc1ccc(S(=O)(=O)N/N=C/c2ccc(Cl)s2)cc1
inactive: [18] 95 % of control | [19] 97 % of control | dose: 400.0 mg/kg/injection, schedule: Q01DX009 (ip), vehicle: saline with Tween-80 92 % of control

O=S(OCCCl)OCCCl
inactive: dose: 75.0 mg/kg/injection, schedule: Q04DX003 (ip), vehicle: Klucel (hydroxypropylcellulose) (HPC) 91 % of control | dose: 150.0 mg/kg/injection, schedule: Q04DX003 (ip), vehicle: Klucel (hydroxypropylcellulose) (HPC) 102 % of control | dose: 300.0 mg/kg/injection, schedule: Q04DX003 (ip), vehicle: Klucel (hydroxypropylcellulose) (HPC) 98 % of control

O=C(NC1C=CCCC1)c1ccccc1 (stereo unspecified)
inactive: dose: 50.0 mg/kg/injection, schedule: Q01DX009 (ip), vehicle: saline with Tween-80 102 % of control | [18] 96 % of control | [19] 96 % of control

C(=C/n1cnc2ccccc21)/c1ccccc1
inactive: dose: 87.5 mg/kg/injection, schedule: Q04DX003 (ip), vehicle: Klucel (hydroxypropylcellulose) (HPC) 92 % of control | dose: 175.0 mg/kg/injection, schedule: Q04DX003 (ip), vehicle: Klucel (hydroxypropylcellulose) (HPC) 96 % of control | dose: 350.0 mg/kg/injection, schedule: Q04DX003 (ip), vehicle: Klucel (hydroxypropylcellulose) (HPC) 91 % of control

[CH3][Sn]([CH3])([CH3])[CH2][Sn]([CH3])([CH3])[CH3]
inactive: [2] 101 % of control | [5] 93 % of control and 103 % of control | [6] 98 % of control

CCOc1ccccc1NC(=O)c1c(Br)c(Br)c(Br)c(Br)c1C(=O)O
inactive: [11] 102 % of control | [13] 102 % of control

CC1(C)CCCC/C1=N\NC(N)=O
inactive: dose: 37.5 mg/kg/injection, schedule: Q01DX009 (ip), vehicle: saline with Tween-80 98 % of control | [16] 102 % of control | dose: 75.0 mg/kg/injection, schedule: Q01DX009 (ip), vehicle: saline with Tween-80 96 % of control | dose: 75.0 mg/kg/injection, schedule: Q04DX003 (ip), vehicle: saline sonified 98 % of control | [17] 102 % of control | dose: 150.0 mg/kg/injection, schedule: Q01DX009 (ip), vehicle: saline with Tween-80 94 % of control | dose: 150.0 mg/kg/injection, schedule: Q04DX003 (ip), vehicle: saline sonified 87 % of control | dose: 300.0 mg/kg/injection, schedule: Q01DX001 (ip), vehicle: other 102 % of control

CCOC(OCC)C(C)(C)OC=O
inactive: [10] 103 % of control | [12] 103 % of control | [14] 103 % of control
